# Measurements as given in article PMC12082738 (Journal of Enzyme Inhibition and Medicinal Chemistry, 2025).
# How the values were obtained:
# E. coli β-GUS = E. coli β-GUS (Escherichia coli, UniProt P05804); experiment: β-GUS inhibition assay; type: biochemical; details: for Inhibition type, β-GUS: Lineweaver–Burk and Dixon plots, substrate 4-MUG
# S. cerevisiae α-GUS = S. cerevisiae α-GUS (Saccharomyces cerevisiae, UniProt P07265); experiment: α-GUS inhibition assay; type: biochemical
# α-amylase = details: read-out: IC50 α-amylase; cited from earlier work
# [1] = biological target: protein tyrosine phosphatase-1B; details: read-out: IC50 protein tyrosine phosphatase-1B; cited from earlier work
# L6 myotubes = details: cited from earlier work
# [2] = test system: human umbilical vein endothelial cells; details: cited from earlier work
# [3] = test system: platelet-activating factor acetyltransferase; details: read-out: IC50 platelet-activating factor acetyltransferase; cited from earlier work
# colorectal cancer cells = details: 7.1 μM; cited from earlier work
# α-GUS = details: read-out: IC50 against α-GUS; cited from earlier work
# β-GUS = details: read-out: IC50 against β-GUS; cited from earlier work
# [4] = substrate kinetics, preliminary kinetic assay
# S. cerevisiae α-GUS, sequence (P07265 whole entry): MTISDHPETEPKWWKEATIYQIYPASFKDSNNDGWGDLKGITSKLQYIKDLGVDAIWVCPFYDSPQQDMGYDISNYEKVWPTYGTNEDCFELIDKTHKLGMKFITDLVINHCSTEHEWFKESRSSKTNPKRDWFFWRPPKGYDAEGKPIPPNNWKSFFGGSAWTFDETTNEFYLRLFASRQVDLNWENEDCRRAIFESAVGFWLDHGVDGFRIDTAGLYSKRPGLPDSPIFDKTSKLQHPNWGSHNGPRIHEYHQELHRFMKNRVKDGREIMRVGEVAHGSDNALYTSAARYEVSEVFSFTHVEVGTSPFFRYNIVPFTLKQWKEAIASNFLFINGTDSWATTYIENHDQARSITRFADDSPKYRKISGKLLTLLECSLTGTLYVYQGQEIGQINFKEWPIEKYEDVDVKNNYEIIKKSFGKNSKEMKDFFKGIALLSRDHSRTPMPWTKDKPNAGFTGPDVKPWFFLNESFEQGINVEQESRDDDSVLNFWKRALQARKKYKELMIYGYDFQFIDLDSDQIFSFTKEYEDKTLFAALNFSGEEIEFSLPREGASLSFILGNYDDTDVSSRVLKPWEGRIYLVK
# E. coli β-GUS, sequence (P05804 whole entry): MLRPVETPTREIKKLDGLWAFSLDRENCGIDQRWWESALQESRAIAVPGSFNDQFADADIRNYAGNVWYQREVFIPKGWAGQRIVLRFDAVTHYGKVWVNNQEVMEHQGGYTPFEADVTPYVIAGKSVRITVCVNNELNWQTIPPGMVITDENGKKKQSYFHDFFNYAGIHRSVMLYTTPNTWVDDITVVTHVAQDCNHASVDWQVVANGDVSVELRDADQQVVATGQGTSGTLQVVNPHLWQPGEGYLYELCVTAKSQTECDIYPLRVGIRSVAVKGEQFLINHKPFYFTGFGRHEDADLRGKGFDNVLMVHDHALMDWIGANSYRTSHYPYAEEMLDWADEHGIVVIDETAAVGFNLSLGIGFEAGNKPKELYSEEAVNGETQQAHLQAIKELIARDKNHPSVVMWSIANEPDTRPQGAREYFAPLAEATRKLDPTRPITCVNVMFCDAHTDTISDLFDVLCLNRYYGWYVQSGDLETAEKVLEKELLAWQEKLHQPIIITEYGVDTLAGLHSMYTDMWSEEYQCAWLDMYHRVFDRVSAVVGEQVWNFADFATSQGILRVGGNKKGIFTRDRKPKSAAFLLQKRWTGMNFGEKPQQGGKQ
smiles,measurement,setting,value
"Cc1cc(=O)oc2cc(O[C@@H]3O[C@H](C(=O)O)[C@@H](O)[C@H](O)[C@H]3O)ccc12 [4-MUG, 4-Methylumbelliferyl-β-D-glucuronide, reference compound]",Vmax for 4-MUG hydrolysis by β-GUS,E. coli β-GUS; [4],7.21 ± 0.10 µmol/min/mg
"CC(C)=CCc1c(O)c(CC=C(C)C)c2occ(-c3ccc(O)cc3)c(=O)c2c1O [DPG, 6,8-diprenylgenistein]",Ki,S. cerevisiae α-GUS,11.4 ± 2.2 µM
same,IC50,"S. cerevisiae α-GUS; IC50 for inhibition of α-GUS, substrate PNPG 500 μM",60.6 ± 10.3 µM
same,"Inhibition type, α-GUS","S. cerevisiae α-GUS; Lineweaver–Burk and Dixon plots, substrate PNPG",Un-competitive
same,IC50,E. coli β-GUS,4.05 ± 0.16 µM
same,Ki,E. coli β-GUS,2.62 ± 0.1 µM
same,"Inhibition type, β-GUS",E. coli β-GUS,Non-competitive
same,"Inhibition type, β-GUS",E. coli β-GUS; listed as Diprenylgenistein,competitive
same,IC50,α-amylase,14.8 µM
same,IC50,[1],2.3 to 28 µM
same,concentration increasing basal and insulin-stimulated glucose uptake,L6 myotubes,> 10 µM
same,concentration reversing high glucose induced injury,[2],> 2.5 µM
same,IC50,[3],19 µM
same,effect on colorectal cancer cells,colorectal cancer cells,trigger dual apoptosis and autophagy
"O=C(O)[C@@H](O)[C@H]1OC(=O)[C@H](O)[C@H]1O [DSL, D-Saccharic acid 1,4-lactone, reference compound]",IC50,E. coli β-GUS,55 ± 7.6 µM
"O=[N+]([O-])c1ccc(O[C@H]2O[C@H](CO)[C@@H](O)[C@H](O)[C@H]2O)cc1 [PNPG, 4-Nitrophenyl-α-D-glucopyranoside, reference compound]",Vmax for PNPG hydrolysis by α-GUS,S. cerevisiae α-GUS; [4],1.05 ± 0.03 μmol/min/U
O=c1c(-c2ccc(O)cc2)coc2cc(O)ccc12 [daidzein],IC50,α-GUS,> 100 µM
same,IC50,β-GUS,> 100 µM
